For data set [1] the following is noted: rat, 7.98 mg/kg, cited from earlier work; for CBD serum level: vaporized CBD, by four hours.
The conditions of data set [2]: Huntington's disease patients, oral 10 mg/kg/day for 6 weeks; cited from earlier work.
The nature of data set [3]: Pharmacokinetic study in rats: dry powder insufflation of TFF-CBD and intravenous CBD solution. The data set is classed as in vivo. The conditions noted are these: plasma, intravenous solution 10 mg/kg, rat, read-out: Cannabidiol concentration in rat plasma, Intravenous. The method, then:
A dry powder formulation for inhalation containing 25% (w/w) of Cannabidiol (CBD) was developed using TFF technology, and a pharmacokinetic (PK) study in rats was performed using PennCentury™ DP4 dry powder Insufflator™ with a target delivered dose of 10 mg/kg CBD. […] For comparison and in contrast to the plasma levels of this TFF-CBD inhaled powder, in an inhaled CBD pharmacokinetic study in rats reported by Hložek et al. (2017) using CBD dissolved in a ethanolic solution and vaporized using heat, the inventors calculated based on information in this paper the administered amount of CBD as the delivered dose of 1.798 mg, or 7.98 mg/kg (calculated according Wang et al., 2014; DD=C×RMV×D, where DD is the delivered dose in mg, C is the concentration of drug powder in air in mg/L, RMV is the respiratory minute volume of a rat in L/min (RMV (L/min) for rats is calculated as =0.608×BW (kg)^0.852), and D is the exposure duration in min; based on 20 mg CBD nebulized into 9.5 L dosing chamber; a calculated RMV of 0.17 L/min, an average body weight of 225 g and exposure time of 5 min). […] There is a difference between this TFF-CBD inhaled powder that maintained relatively constant plasma levels over 8 hours compared to the rapid decline in serum levels of inhaled CBD ethanolic solution reported by Hložek et al. (2017). Possible explanations include that the TFF-CBD powder can better avoid lung clearance and that the TFF-CBD powder particles deposited in the lungs continue to dissolve and be absorbed from the lungs to plasma. (Beinborn et al., 2012; Wang et al., 2014; Carvalho et al., 2014). […] For comparison, based on CBD plasma levels of Huntington's disease patients, as reported by Consroe et al. (1991), the orally administered CBD dose of 10 mg/kg/day, which is the recommended maintenance dose of Epidiolex®, for 6 weeks by oral administration resulted a steady state CBD plasma level between 5.9 and 11.2 ng/mL.
To study of plasma level with lower dose of the TFF-CBD powder by dry powder inhalation, another pharmacokinetic study in rats was performed using PennCentury™ DP4 dry powder Insufflator™ with a target delivered dose of 3 mg/kg and 1 mg/kg CBD. […] In other words, TFF-CBD dry powder inhalation was more efficient in delivering CBD than the vaporized CBD liquid. Therefore, delivery of TFF-CBD powder by dry powder inhalation requires a lower dose to reach the similar systemic levels of CBD as compared to vaporized CBD liquid by inhalation, thus showing TFF-CBD will present better efficacy at equivalent doses.

SMILES strings stand for the structures. Like-named read-outs stand apart in the source and are kept apart here.

`C=C(C)[C@@H]1CCC(C)=C[C@H]1c1c(O)cc(CCCCC)cc1O` [Cannabidiol]: in data set [1] (vaporized CBD ethanolic solution, immediately after removal from inhalation dosing chamber), the “CBD serum level, peak” value is recorded as “about 220 ng/mL”. Moreover, the CBD serum level result in data set [1] (listed as CBD) is listed as “less than 20 ng/mL”; in data set [1], “below 20 ng/mL”. Besides, the “effect of the dosing level in Huntington's disease” value in data set [2] is “neither symptomatically effective nor toxic”. The concentration at 0.083 h in data set [3] (n=5, 0.083 h) was 4.28 ± 0.891 µg/mL. For the same compound, the concentration at 0.25 h in data set [3] (n=5, 0.25 h) came out at 1.77 ± 0.297 µg/mL. Moreover, the concentration at 0.5 h in data set [3] (n=5, 0.5 h) was 1.04 ± 0.217 µg/mL. The concentration at 1 h in data set [3] (n=5, 1 h) stood at 0.601 ± 0.193 µg/mL. Also, the concentration at 2 h in data set [3] (n=5, 2 h) was found to be 0.272 ± 0.112 µg/mL. Also, in data set [3] (n=5, 4 h), the concentration at 4 h was found to be 0.05 ± 0.023 µg/mL. For the same compound, the concentration at 8 h in data set [3] (n=5, 8 h) is 0.0161 ± 0.0113 µg/mL.

Values taken from patent publication US20220339227A1, “COMPOSITIONS OF CANNABINOIDS FOR DELIVERY BY INHALATION” (priority 2019, published 2022).
